Molecular target: NANOLUC® Luciferase (Oplophorus gracilirostris, UniProt Q9GV45, A31E/A60N/A81I/F95D/I117V/K70R/L54V/L99Q/M102K/N193R/P142E/Q151K/Q38R/Q45L/V71I/Y165I)
Test: Luminescence assay with purified NANOLUC luciferase (Example 7)
Format: biochemical
Conditions: bioluminescence with NANOLUC luciferase
Protocol: Each compound to be screened was dissolved in DMSO (5 mM) and then further diluted to 100 uM in NANO-GLO® Luciferase Assay Buffer. Each diluted substrate was then combined in equal volumes with purified NANOLUC® Luciferase diluted into CO2 independent media+10% FBS. Initial light output for each substrate was measured in a GLOMAXI-Multi+luminometer three minutes after substrate addition and then at five minute intervals as a means to determine signal half-life.
The synthesized coelenterazine analogues (compounds of formula (I) and (II)) were evaluated for their suitability as luciferase substrates. NANOLUC® luciferase was employed for the screening because it is a small (19 kDa), stable, and particularly bright enzyme.

Chain of NANOLUC® Luciferase (Q9GV45 28-196 with tags or gaps with the stated changes limits assumed): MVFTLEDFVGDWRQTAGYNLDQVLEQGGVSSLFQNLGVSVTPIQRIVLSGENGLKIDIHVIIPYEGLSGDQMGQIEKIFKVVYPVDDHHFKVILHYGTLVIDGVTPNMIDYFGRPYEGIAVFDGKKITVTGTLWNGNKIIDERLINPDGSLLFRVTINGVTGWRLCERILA

Which “λmax, nm” value does the source give for `Nc1ccc(-c2cn3c(=O)c(Cc4ccco4)nc-3c(-c3ccnc(Cl)c3)[nH]2)cc1` here?
The value was 571 nm.

Which “λmax, nm” value does the source give for `O=c1c(Cc2ccco2)nc2c(-c3ccco3)[nH]c(-c3ccco3)cn1-2` [AS-175, 6,8-di(furan-2-yl)-2-(furan-2-ylmethyl)imidazo[1,2-a]pyrazin-3(7H)-one] here?
The value was 514 nm.

How did the “λmax, nm” value turn out when `O=c1c(Cc2ccco2)nc2c(-c3cccs3)[nH]c(-c3cccs3)cn1-2` [AS-176, 2-(furan-2-ylmethyl)-6,8-di(thiophen-2-yl)imidazo[1,2-a]pyrazin-3(7H)-one] was run?
The value was 496 nm.

Which “λmax, nm” value does the source give for `Cn1cc(-c2[nH]c(-c3ccn(C)n3)cn3c(=O)c(Cc4ccco4)nc2-3)cn1` [AS-190, 2-(furan-2-ylmethyl)-6-(1-methyl-1H-pyrazol-3-yl)-8-(1-methyl-1H-pyrazol-4-yl)imidazo[1,2-a]pyrazin-3(7H)-one] here?
Its value is 496 nm.

How did the “λmax, nm” value turn out when `O=c1c(Cc2ccco2)nc2c(-c3cccc4ccccc34)[nH]c(-c3ccccc3)cn1-2` [AS-215, 2-(furan-2-ylmethyl)-8-(naphthalen-1-yl)-6-phenylimidazo[1,2-a]pyrazin-3(7H)-one] was run?
Its value is 517 nm.

With `CN(C)c1ccc(-c2[nH]c(-c3ccccc3)cn3c(=O)c(Cc4ccco4)nc2-3)cc1` [AS-224, 8-(4-(dimethylamino)phenyl)-2-(furan-2-ylmethyl)-6-phenylimidazo[1,2-a]pyrazin-3(7H)-one] as the molecule, how does the “λmax, nm” value read?
Its value is 502 nm.

`O=c1c(Cc2ccco2)nc2c(-c3ccsc3)[nH]c(-c3ccccc3)cn1-2` [AS-229, 2-(furan-2-ylmethyl)-6-phenyl-8-(thiophen-3-yl)imidazo[1,2-a]pyrazin-3(7H)-one] was tested. Which “λmax, nm” value did it give?
The value was 496 nm.

For `O=c1c(Cc2ccco2)nc2c(-c3cccs3)[nH]c(-c3ccccc3)cn1-2` [AS-236, 2-(furan-2-ylmethyl)-6-phenyl-8-(thiophen-2-yl)imidazo[1,2-a]pyrazin-3(7H)-one], which “λmax, nm” value is on record?
Its value is 514 nm.

`N#Cc1ccc(-c2[nH]c(-c3ccccc3)cn3c(=O)c(Cc4ccco4)nc2-3)cc1` [AS-237, 4-(2-(furan-2-ylmethyl)-3-oxo-6-phenyl-3,7-dihydroimidazo[1,2-a]pyrazin-8-yl)benzonitrile] was tested. Which “λmax, nm” value did it give?
Its value is 559 nm.

Which “λmax, nm” value does the source give for `O=c1c(Cc2ccco2)nc2c(C#Cc3ccccc3)[nH]c(-c3ccccc3)cn1-2` [AS-242, 2-(furan-2-ylmethyl)-6-phenyl-8-(phenylethynyl)imidazo[1,2-a]pyrazin-3(7H)-one] here?
Its value is 517 nm.

How did the “λmax, nm” value turn out when `O=c1c(Cc2ccco2)nc2c(-c3ccccc3)[nH]c(-c3ccccc3)c(-c3ccccc3)n1-2` [AS-248, 2-(furan-2-ylmethyl)-5,6,8-triphenylimidazo[1,2-a]pyrazin-3(7H)-one] was run?
The value was 520 nm.

For `O=c1c(Cc2ccco2)nc2c(-c3ccc4scnc4c3)[nH]c(-c3ccccc3)cn1-2` [AS-250, 8-(benzo[d]thiazol-5-yl)-2-(furan-2-ylmethyl)-6-phenylimidazo[1,2-a]pyrazin-3(7H)-one], which “λmax, nm” value is on record?
Its value is 511 nm.

With `Cn1cc(-c2[nH]c(-c3ccccc3)cn3c(=O)c(Cc4ccco4)nc2-3)ccc1=O` [AS-256, 2-(furan-2-ylmethyl)-8-(1-methyl-6-oxo-1,6-dihydropyridin-3-yl)-6-phenylimidazo[1,2-a]pyrazin-3(7H)-one] as the molecule, how does the “λmax, nm” value read?
Its value is 496 nm.

With `O=c1c(Cc2ccco2)nc2c(-c3ccc(F)cc3)[nH]c(-c3ccccc3)cn1-2` [AS-269, 8-(4-fluorophenyl)-2-(furan-2-ylmethyl)-6-phenylimidazo[1,2-a]pyrazin-3(7H)-one] as the molecule, how does the “λmax, nm” value read?
Its value is 490 nm.

How did the “λmax, nm” value turn out when `O=c1c(Cc2ccco2)nc2c(-c3cc(F)c(F)c(F)c3)[nH]c(-c3ccccc3)cn1-2` [AS-270, 2-(furan-2-ylmethyl)-6-pheny1-8-(3,4,5-trifluorophenyl)imidazo[1,2-a]pyrazin-3(7H)-one] was run?
The value was 502 nm.

With `O=c1c(Cc2ccco2)nc2c(-c3ccnc(F)c3)[nH]c(-c3ccccc3)cn1-2` [AS-271, 8-(2-fluoropyridin-4-yl)-2-(furan-2-ylmethyl)-6-phenylimidazo[1,2-a]pyrazin-3(7H)-one] as the molecule, how does the “λmax, nm” value read?
The value was 532 nm.

Which “λmax, nm” value does the source give for `O=c1c(Cc2ccco2)nc2c(-c3cccnc3F)[nH]c(-c3ccccc3)cn1-2` [AS-272, 8-(2-fluoropyridin-3-yl)-2-(furan-2-ylmethyl)-6-phenylimidazo[1,2-a]pyrazin-3(7H)-one] here?
Its value is 508 nm.

`O=c1c(Cc2ccco2)nc2c(-c3ccc(F)nc3)[nH]c(-c3ccccc3)cn1-2` [AS-273, 8-(6-fluoropyridin-3-yl)-2-(furan-2-ylmethyl)-6-phenylimidazo[1,2-a]pyrazin-3(7H)-one] was tested. Which “λmax, nm” value did it give?
The value was 496 nm.

With `N#Cc1cccc(-c2[nH]c(-c3ccccc3)cn3c(=O)c(Cc4ccco4)nc2-3)c1` [AS-274, 3-(2-(furan-2-ylmethyl)-3-oxo-6-phenyl-3,7-dihydroimidazo[1,2-a]pyrazin-8-yl)benzonitrile] as the molecule, how does the “λmax, nm” value read?
Its value is 514 nm.

`O=c1c(Cc2ccco2)nc2c(-c3ccnc(Cl)c3)[nH]c(-c3ccccc3)cn1-2` [AS-275, 8-(2-chloropyridin-4-yl)-2-(furan-2-ylmethyl)-6-phenylimidazo[1,2-a]pyrazin-3(7H)-one] was tested. Which “λmax, nm” value did it give?
Its value is 535 nm.

`O=c1c(Cc2ccco2)nc2c(-c3ccncc3)[nH]c(-c3ccccc3)cn1-2` [AS-276, 2-(furan-2-ylmethyl)-6-phenyl-8-(pyridin-4-yl)imidazo[1,2-a]pyrazin-3(7H)-one] was tested. Which “λmax, nm” value did it give?
The value was 523 nm.

With `O=c1c(Cc2ccco2)nc2c(-c3cccnc3)[nH]c(-c3ccccc3)cn1-2` [AS-277, 2-(furan-2-ylmethyl)-6-phenyl-8-(pyridin-3-yl)imidazo[1,2-a]pyrazin-3(7H)-one] as the molecule, how does the “λmax, nm” value read?
Its value is 517 nm.

For `O=c1c(Cc2ccco2)nc2c(-c3cccnc3Cl)[nH]c(-c3ccccc3)cn1-2` [AS-278, 8-(2-chloropyridin-3-yl)-2-(furan-2-ylmethyl)-6-phenylimidazo[1,2-a]pyrazin-3(7H)-one], which “λmax, nm” value is on record?
The value was 499 nm.

Which “λmax, nm” value does the source give for `O=c1c(Cc2ccco2)nc2c(-c3ccc(Cl)s3)[nH]c(-c3ccccc3)cn1-2` [AS-280, 8-(5-chlorothiophen-2-yl)-2-(furan-2-ylmethyl)-6-phenylimidazo[1,2-a]pyrazin-3(7H)-one] here?
Its value is 523 nm.

Which “λmax, nm” value does the source give for `O=c1c(Cc2ccco2)nc2c(-c3sccc3Cl)[nH]c(-c3ccccc3)cn1-2` [AS-282, 8-(3-chlorothiophen-2-yl)-2-(furan-2-ylmethyl)-6-phenylimidazo[1,2-a]pyrazin-3(7H)-one] here?
The value was 505 nm.

Which “λmax, nm” value does the source give for `N#Cc1c(-c2ccccc2)[nH]c(-c2ccnc(F)c2)c2nc(Cc3ccco3)c(=O)n1-2` [AS-301, 8-(2-fluoropyridin-4-yl)-2-(furan-2-ylmethyl)-3-oxo-6-phenyl-3,7-dihydroimidazo[1,2-a]pyrazine-5-carbonitrile] here?
The value was 529 nm.

Which “λmax, nm” value does the source give for `O=c1c(Cc2ccco2)nc2c(-c3ccnc(F)c3)[nH]c(-c3cccs3)cn1-2` [AS-306, 8-(2-fluoropyridin-4-yl)-2-(furan-2-ylmethyl)-6-(thiophen-2-yl)imidazo[1,2-a]pyrazin-3(7H)-one] here?
Its value is 544 nm.

How did the “λmax, nm” value turn out when `Cn1c(C#N)ccc1-c1[nH]c(-c2ccccc2)cn2c(=O)c(Cc3ccco3)nc1-2` [AS-311, 5-(2-(furan-2-ylmethyl)-3-oxo-6-phenyl-3,7-dihydroimidazo[1,2-a]pyrazin-8-yl)-1-methyl-1H-pyrrole-2-carbonitrile] was run?
Its value is 505 nm.

How did the “λmax, nm” value turn out when `O=c1c(Cc2ccco2)nc2c(-c3ccnc(Br)c3)[nH]c(-c3ccccc3)cn1-2` [AS-314, 8-(2-bromopyridin-4-yl)-2-(furan-2-ylmethyl)-6-phenylimidazo[1,2-a]pyrazin-3(7H)-one] was run?
Its value is 538 nm.

For `Nc1ccc(-c2cn3c(=O)c(Cc4ccco4)nc-3c(-c3ccnc4ccccc34)[nH]2)cc1` [AS-330, 6-(4-aminopheny1)-2-(furan-2-ylmethyl)-8-(quinolin-4-yl)imidazo[1,2-a]pyrazin-3(7H)-one], which “λmax, nm” value is on record?
Its value is 583 nm.

`N#Cc1ccc(-c2[nH]c(-c3ccc(N)cc3)cn3c(=O)c(Cc4ccco4)nc2-3)s1` [AS-332, 5-(6-(4-aminophenyl)-2-(furan-2-ylmethyl)-3-oxo-3,7-dihydroimidazo[1,2-a]pyrazin-8-yl)thiophene-2-carbonitrile] was tested. Which “λmax, nm” value did it give?
Its value is 598 nm.

Which “λmax, nm” value does the source give for `N#Cc1ccc(-c2[nH]c3c(n4c(=O)c(Cc5ccco5)nc2-4)CCc2ccccc2-3)s1` [AS-340, 5-(2-(furan-2-ylmethyl)-3-oxo-3,5,6,11-tetrahydrobenzo[f]imidazo[1,2-a]quinoxalin-12-yl)thiophene-2-carbonitrile] here?
Its value is 574 nm.

With `O=c1c(Cc2ccco2)nc2c(-c3ccnc4ccccc34)[nH]c3c(n1-2)CCc1ccccc1-3` [AS-341, 2-(furan-2-ylmethyl)-12-(quinolin-4-yl)-5,11-dihydrobenzo[f]imidazo[1,2-a]quinoxalin-3(6H)-one] as the molecule, how does the “λmax, nm” value read?
Its value is 583 nm.

With `O=c1c(Cc2ccco2)nc2c(-c3ccnc(Cl)c3)[nH]c3c(n1-2)CCc1ccccc1-3` [AS-342, 12-(2-chloropyridin-4-yl)-2-(furan-2-ylmethyl)-5,11-dihydrobenzo[f]imidazo[1,2-a]quinoxalin-3(6H)-one] as the molecule, how does the “λmax, nm” value read?
Its value is 538 nm.

How did the “λmax, nm” value turn out when `Nc1cccc(-c2cn3c(=O)c(Cc4ccco4)nc-3c(Cc3ccccc3)[nH]2)c1` [JRW-0438, 6-(3-aminophenyl)-8-benzyl-2-(furan-2-ylmethyl)imidazo[1,2-a]pyrazin-3(7H)-one] was run?
The value was 487 nm.

For `Nc1ccc(-c2cn3c(=O)c(Cc4ccco4)nc-3c(Cc3ccccc3)[nH]2)cc1` [JRW-0445, 6-(4-aminophenyl)-8-benzyl-2-(furan-2-ylmethyl)imidazo[1,2-a]pyrazin-3(7H)-one], which “λmax, nm” value is on record?
Its value is 502 nm.

With `Nc1ccccc1-c1cn2c(=O)c(Cc3ccco3)nc-2c(Cc2ccccc2)[nH]1` [JRW-0446, 6-(2-aminophenyl)-8-benzyl-2-(furan-2-ylmethyl)imidazo[1,2-a]pyrazin-3(7H)-one] as the molecule, how does the “λmax, nm” value read?
Its value is 487 nm.

Reference: patent publication US10000500B2 (PROMEGA CORPORATION, priority 2016, dated 2018)
